Measured values from paper PMC7006757, “Design, synthesis and in vitro biological evaluation of quinazolinone derivatives as EGFR inhibitors for antitumor treatment” (Journal of Enzyme Inhibition and Medicinal Chemistry, 2020).

Tests used:
PC-3 cells = test: MTT assay, PC-3; conditions: Homo sapiens; for IC50: PC-3, read-out: IC50 (μM) PC-3; for inhibition at 10 µM: PC-3, read-out: Inhibition rate (%, 10 μM) PC-3
SMMC-7721 cells = test: MTT assay, SMMC-7721; conditions: Homo sapiens; for IC50: SMMC-7721, read-out: IC50 (μM) SMMC-7721; for inhibition at 10 µM: SMMC-7721, read-out: Inhibition rate (%, 10 μM) SMMC-7721
EGFR^wt-TK = biological target: T1, EGFR^wt-TK (Homo sapiens, UniProt P00533); test: In vitro EGFR^wt-TK assay (ELISA with recombinant EGFR); format: biochemical; conditions: mean ± SD of three replicates; for inhibition at 1 µM: read-out: EGFR^wt-TK inhibition rate (%, 1 μM)
T1 construct: purchased Sino Biology Inc
T1 sequence (P00533 25-1210): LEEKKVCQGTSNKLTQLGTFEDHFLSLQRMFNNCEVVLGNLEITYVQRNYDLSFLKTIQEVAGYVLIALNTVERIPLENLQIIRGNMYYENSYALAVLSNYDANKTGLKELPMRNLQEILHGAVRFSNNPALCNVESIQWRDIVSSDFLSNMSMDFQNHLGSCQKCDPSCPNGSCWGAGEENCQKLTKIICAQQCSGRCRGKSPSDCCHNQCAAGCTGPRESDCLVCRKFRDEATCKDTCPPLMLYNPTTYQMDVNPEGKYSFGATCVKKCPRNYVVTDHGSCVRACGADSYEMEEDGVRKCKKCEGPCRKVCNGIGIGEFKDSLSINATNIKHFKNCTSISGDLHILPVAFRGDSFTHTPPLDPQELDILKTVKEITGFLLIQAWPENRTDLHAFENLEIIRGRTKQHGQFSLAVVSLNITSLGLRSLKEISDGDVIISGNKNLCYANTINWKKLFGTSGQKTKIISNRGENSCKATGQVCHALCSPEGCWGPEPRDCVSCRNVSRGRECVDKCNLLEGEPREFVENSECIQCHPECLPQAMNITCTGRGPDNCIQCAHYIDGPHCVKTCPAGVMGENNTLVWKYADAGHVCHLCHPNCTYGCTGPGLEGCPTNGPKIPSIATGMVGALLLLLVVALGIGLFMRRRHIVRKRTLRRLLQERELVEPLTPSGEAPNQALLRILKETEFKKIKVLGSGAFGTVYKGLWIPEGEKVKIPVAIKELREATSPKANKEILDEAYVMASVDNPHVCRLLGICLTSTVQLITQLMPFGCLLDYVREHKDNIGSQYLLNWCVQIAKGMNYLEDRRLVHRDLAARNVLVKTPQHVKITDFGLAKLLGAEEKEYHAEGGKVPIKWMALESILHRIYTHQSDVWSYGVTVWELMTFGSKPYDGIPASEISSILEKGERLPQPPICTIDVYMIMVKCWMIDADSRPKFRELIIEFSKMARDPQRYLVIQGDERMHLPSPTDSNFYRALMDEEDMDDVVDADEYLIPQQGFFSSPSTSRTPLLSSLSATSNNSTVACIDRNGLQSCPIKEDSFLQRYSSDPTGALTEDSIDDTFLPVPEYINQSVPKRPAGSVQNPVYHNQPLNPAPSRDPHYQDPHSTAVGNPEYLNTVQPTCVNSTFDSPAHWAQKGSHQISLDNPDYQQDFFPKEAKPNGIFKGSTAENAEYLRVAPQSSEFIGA
Protocol: Recombinant EGFR was purchased from Sino Biology Inc. Antiphosphotyrosine mouse mAb was purchased from PTM Bio. The effects of compounds on the activity of wild type EGFR tyrosine kinase were determined by enzyme-linked immunosorbent assays (ELISAs) with recombinant EGFR according to reported methods.

A549 cells [1] = test: MTT assay, A549; conditions: Homo sapiens; for IC50: A549, read-out: IC50 (μM) A549; for inhibition at 10 µM: A549, read-out: Inhibition rate (%, 10 μM) A549
A549 cells [2] = test: Cell cycle analysis, PI flow cytometry; format: cell-based, human; conditions: for Percentage of cells in G0/G1 / Percentage of cells in G2/M / Percentage of cells in S: 48 h
A549 cells [3] = test: Cell apoptosis analysis, Annexin V-FITC/PI flow cytometry; format: cell-based, human; conditions: A549, 5, 10, 20 μM, 48 h
EGFR = conditions: Figure 2; read-out: Reported EGFR inhibitors: IC50; cited from earlier work

Row | SMILES | inhibition at 1 µM (EGFR^wt-TK) | melting point | inhibition at 10 µM (PC-3 cells) | inhibition at 10 µM (SMMC-7721 cells) | inhibition at 10 µM (A549 cells [1]) | further results
1 | O=c1[nH]cc(F)c(=O)[nH]1 [5-Fluorouracil, reference compound] | 63.4 ± 1.69% |  | 29.3 ± 1.24% | 29.1 ± 2.75% | 40.4 ± 1.15% | IC50 (PC-3 cells): 22.5 ± 0.74 µM; IC50 (SMMC-7721 cells): 11.4 ± 1.95 µM; IC50 (EGFR^wt-TK): 0.14 ± 0.011 µM; IC50 (A549 cells [1]): 1.53 ± 0.72 µM
2 | Cn1c(COc2ccc(/C=N/c3ccccc3)cc2)nc2ccccc2c1=O [5a, (E)-3-methyl-2-((4-((phenylimino)methyl)phenoxy)methyl)quinazolin-4(3H)-one] | 1.91 ± 0.91% | 150 to 152 °C | 7.36 ± 2.38% | 15.1 ± 5.91% | 15.4 ± 1.52% | 
3 | Cc1ccccc1/N=C/c1ccc(OCc2nc3ccccc3c(=O)n2C)cc1 [5b, (E)-3-methyl-2-((4-((o-tolylimino)methyl)phenoxy)methyl)quinazolin-4(3H)-one] | 2.57 ± 1.25% | 162 to 164 °C | 23.9 ± 8.59% | 24.3 ± 1.7% | 14.5 ± 4.09% | 
4 | Cc1ccc(/N=C/c2ccc(OCc3nc4ccccc4c(=O)n3C)cc2)cc1 [5c, (E)-3-methyl-2-((4-((p-tolylimino)methyl)phenoxy)methyl)quinazolin-4(3H)-one] | 50.8 ± 3.29% | 182 to 184 °C | 7.46 ± 0.52% | 31.8 ± 9.91% | 12.1 ± 2% | 
5 | COc1ccccc1/N=C/c1ccc(OCc2nc3ccccc3c(=O)n2C)cc1 [5d, (E)-2-((4-(((2-methoxyphenyl)imino)methyl)phenoxy)methyl)-3-methylquinazolin-4(3H)-one] | 38.7 ± 1.83% | 141 to 143 °C | 38.2 ± 1.4% | 2.78 ± 4.23% | 20.8 ± 4.81% | 
6 | COc1ccc(/N=C/c2ccc(OCc3nc4ccccc4c(=O)n3C)cc2)cc1 [5e, (E)-2-((4-(((4-methoxyphenyl)imino)methyl)phenoxy)methyl)-3-methylquinazolin-4(3H)-one] | 53.6 ± 1.25% | 180 to 182 °C | 40.2 ± 3.57% | 20.1 ± 9.11% | 25.9 ± 7.46% | 
7 | COc1cc2ncnc(Nc3ccc(F)c(Cl)c3)c2cc1OCCCN1CCOCC1 [Gefitinib, reference compound] |  |  |  |  |  | Percentage of cells in G0/G1 (A549 cells [2]; A549, 5 μM): 58.50%; Percentage of cells in S (A549 cells [2]; A549, 5 μM): 12.03%; Percentage of cells in G0/G1 (A549 cells [2]; A549, 10 μM): 62.15%; Percentage of cells in S (A549 cells [2]; A549, 10 μM): 13.56%
8 | N[C@@H](Cc1ccccc1)C(=O)Nn1c(-c2ccc(F)cc2)nc2ccc(F)cc2c1=O [II] |  |  |  |  |  | IC50 (EGFR): 0.164 µM
9 | COc1ccc(-c2nnc(-n3c(-c4ccccc4)nc4cc(Cl)ccc4c3=O)s2)cc1 [I] |  |  |  |  |  | IC50 (EGFR): 0.32 µM

More lines, main results first:

Row | inhibition at 1 µM (EGFR^wt-TK) | melting point | SMILES | inhibition at 10 µM (PC-3 cells) | inhibition at 10 µM (SMMC-7721 cells) | inhibition at 10 µM (A549 cells [1]) | further results
10 | 1.31 ± 3.64% | 143 to 145 °C | Cn1c(COc2ccc(/C=N/c3ccccc3F)cc2)nc2ccccc2c1=O [5f, (E)-2-((4-(((2-fluorophenyl)imino)methyl)phenoxy)methyl)-3-methylquinazolin-4 (3H)-one] | 5.46 ± 0.28% | 2.65 ± 1.81% | 16.3 ± 1.43% | 
11 | 65 ± 1.51% | 168 to 170 °C | Cn1c(COc2ccc(/C=N/c3cccc(F)c3)cc2)nc2ccccc2c1=O [5g, (E)-2-((4-(((3-fluorophenyl)imino)methyl)phenoxy)methyl)-3-methylquinazolin-4(3H)-one] | 4.76 ± 0.51% | 35.6 ± 1.27% | 15.6 ± 2.56% | IC50 (PC-3 cells): 30.1 ± 1.86 µM; IC50 (SMMC-7721 cells): 35.9 ± 5.85 µM; IC50 (EGFR^wt-TK): 0.047 ± 0.004 µM; IC50 (A549 cells [1]): 19.7 ± 2.34 µM
12 | 56.2 ± 2.16% | 200 to 202 °C | Cn1c(COc2ccc(/C=N/c3ccc(F)cc3)cc2)nc2ccccc2c1=O [5h, (E)-2-((4-(((4-fluorophenyl)imino)methyl)phenoxy)methyl)-3-methylquinazolin-4(3H)-one] | 14.8 ± 2.3% | 22.9 ± 1.66% | 14.8 ± 5.06% | 
13 | 1.04 ± 0.91% | 179 to 181 °C | Cn1c(COc2ccc(/C=N/c3cccc(Cl)c3)cc2)nc2ccccc2c1=O [5i, (E)-2-((4-(((3-chlorophenyl)imino)methyl)phenoxy)methyl)-3-methylquinazolin-4(3H)-one] | 9.6 ± 2.69% | 13.1 ± 2.92% | 23.3 ± 7.52% | 
14 | 53.3 ± 1.58% | 176 to 178 °C | Cn1c(COc2ccc(/C=N/c3cccc(Br)c3)cc2)nc2ccccc2c1=O [5j, (E)-2-((4-(((3-bromophenyl)imino)methyl)phenoxy)methyl)-3-methylquinazolin-4(3H)-one] | 17.9 ± 6.12% | 18.6 ± 1.51% | 18 ± 6.69% | 
15 | 63.4 ± 1.83% | 152 to 154 °C | Cn1c(COc2ccc(/C=N/c3ccc(F)c(F)c3)cc2)nc2ccccc2c1=O [5k, (E)-2-((4-(((3,4-difluorophenyl)imino)methyl)phenoxy)methyl)-3-methylquinazolin-4(3H)-one] | 57.5 ± 2.77% | 34.9 ± 4.72% | 27 ± 1.63% | Percentage of cells in G0/G1 (A549 cells [2]; A549, 5 μM): 61.23%; Percentage of cells in G2/M (A549 cells [2]; A549, 5 μM): 25.31%; Percentage of cells in S (A549 cells [2]; A549, 5 μM): 13.46%; Percentage of cells in G0/G1 (A549 cells [2]; A549, 10 μM): 62.42%; Percentage of cells in G2/M (A549 cells [2]; A549, 10 μM): 23.10%; Percentage of cells in S (A549 cells [2]; A549, 10 μM): 14.48%; Cell cycle arrest of A549 cells (A549 cells [2]; A549, 48 h): arrested in the G2/M phase; IC50 (PC-3 cells): 17.1 ± 3.61 µM; IC50 (SMMC-7721 cells): 15.7 ± 1.64 µM; IC50 (EGFR^wt-TK): 0.01 ± 0.001 µM; Induction of apoptosis in A549 cells (A549 cells [3]): induces cellular apoptosis in a concentration-dependent way; IC50 (A549 cells [1]): 12.3 ± 4.12 µM
16 | 61.9 ± 1.51% | 220 to 221 °C | Cn1c(COc2ccc(/C=N/c3cc(F)cc(F)c3)cc2)nc2ccccc2c1=O [5l, (E)-2-((4-(((3,5-difluorophenyl)imino)methyl)phenoxy)methyl)-3-methylquinazolin-4(3H)-one] | 54.3 ± 7.59% | 41 ± 2.63% | 31.2 ± 2.49% | IC50 (PC-3 cells): 13.3 ± 1.12 µM; IC50 (SMMC-7721 cells): 6.04 ± 0.55 µM; IC50 (EGFR^wt-TK): 0.54 ± 0.031 µM; IC50 (A549 cells [1]): 7.22 ± 3.51 µM
17 | 25.8 ± 1.92% | 181 to 183 °C | Cn1c(COc2ccc(/C=N/c3c(F)cccc3F)cc2)nc2ccccc2c1=O [5m, (E)-2-((4-(((2,6-difluorophenyl)imino)methyl)phenoxy)methyl)-3-methylquinazolin-4(3H)-one] | 26.8 ± 0.59% | 15.1 ± 5.79% | 15.2 ± 3.61% | 
18 | 48.4 ± 0.35% | 181 to 183 °C | Cn1c(COc2ccc(/C=N/c3ccc(F)cc3F)cc2)nc2ccccc2c1=O [5n, (E)-2-((4-(((2,4-difluorophenyl)imino)methyl)phenoxy)methyl)-3-methylquinazolin-4(3H)-one] | 25.8 ± 4.84% | 11.5 ± 2.87% | 33.3 ± 3.63% | 
19 | 16.7 ± 2.99% | 188 to 189 °C | Cn1c(COc2ccc(/C=N/c3ccc(F)c(Cl)c3)cc2)nc2ccccc2c1=O [5o, (E)-2-((4-(((3-chloro-4-fluorophenyl)imino)methyl)phenoxy)methyl)-3-methyl quinazolin-4(3H)-one] | 13.9 ± 0.92% | 24.5 ± 1.37% | 18.7 ± 9.78% | 
20 | 4.32 ± 1.92% | 163 to 164 °C | Cn1c(COc2ccc(/C=N/c3ccc(Cl)c(C(F)(F)F)c3)cc2)nc2ccccc2c1=O [5p, (E)-2-((4-(((4-chloro-3-(trifluoromethyl)phenyl)imino)methyl)phenoxy)methyl)-3-methylquinazolin-4(3H)-one] | 22.6 ± 1.28% | 17.5 ± 2.67% | 15.6 ± 2.66% | 
